PubChem BioAssay AID330 (DTP/NCI, 2004)
Values joined by “and” are separate entries in the source; they are usually repeats but may differ in a detail not shown here. Identical values can stand only once. Toxic doses and inconclusive results are not listed. How the source made its calls: active means survival T/C of 150% or more; inactive means T/C below 125% in these data.

Tested on: P388 leukemia ip, CD2F1 mice, survival T/C
Test: NCI In Vivo Anticancer Drug Screen. Data for tumor model P388 Leukemia (intraperitoneal) in CD2F1 (CDF1) mice
Details: endpoint: median survival time, higher = longer survival
How it was run: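 Mice carrying the transplanted tumor received test compound or vehicle. Survival was recorded in each group, and the value is the treated-group measurement divided by that of the vehicle-treated control group.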

[1] = dose: 25.0 mg/kg/injection, schedule: Q01DX009 (ip), vehicle: water
[2] = dose: 50.0 mg/kg/injection, schedule: Q01DX009 (ip), vehicle: water
[3] = dose: 100.0 mg/kg/injection, schedule: Q01DX009 (ip), vehicle: water
[4] = dose: 200.0 mg/kg/injection, schedule: Q01DX009 (ip), vehicle: water
[5] = dose: 50.0 mg/kg/injection, schedule: Q01DX009 (ip), vehicle: saline with Tween-80
[6] = dose: 100.0 mg/kg/injection, schedule: Q01DX009 (ip), vehicle: saline with Tween-80
[7] = dose: 200.0 mg/kg/injection, schedule: Q01DX009 (ip), vehicle: saline with Tween-80
[8] = dose: 50.0 mg/kg/injection, schedule: Q01DX005 (ip), vehicle: saline
[9] = dose: 100.0 mg/kg/injection, schedule: Q01DX005 (ip), vehicle: saline
[10] = dose: 100.0 mg/kg/injection, schedule: Q01DX001 (ip), vehicle: Klucel (hydroxypropylcellulose) (HPC)
[11] = dose: 50.0 mg/kg/injection, schedule: Q01DX009 (ip), vehicle: Klucel (hydroxypropylcellulose) (HPC)
[12] = dose: 100.0 mg/kg/injection, schedule: Q01DX009 (ip), vehicle: Klucel (hydroxypropylcellulose) (HPC)
[13] = dose: 200.0 mg/kg/injection, schedule: Q01DX009 (ip), vehicle: Klucel (hydroxypropylcellulose) (HPC)
[14] = dose: 60.0 mg/kg/injection, schedule: Q01DX005 (ip), vehicle: saline with Tween-80
[15] = dose: 120.0 mg/kg/injection, schedule: Q01DX005 (ip), vehicle: saline with Tween-80
[16] = dose: 240.0 mg/kg/injection, schedule: Q01DX005 (ip), vehicle: saline with Tween-80
[17] = dose: 60.0 mg/kg/injection, schedule: Q01DX005 (ip), vehicle: Klucel (hydroxypropylcellulose) (HPC)
[18] = dose: 120.0 mg/kg/injection, schedule: Q01DX005 (ip), vehicle: Klucel (hydroxypropylcellulose) (HPC)
[19] = dose: 50.0 mg/kg/injection, schedule: Q01DX005 (ip), vehicle: saline with Tween-80
[20] = dose: 100.0 mg/kg/injection, schedule: Q01DX005 (ip), vehicle: saline with Tween-80
[21] = dose: 100.0 mg/kg/injection, schedule: Q04DX002 (ip), vehicle: saline with Tween-80
[22] = dose: 200.0 mg/kg/injection, schedule: Q04DX002 (ip), vehicle: saline with Tween-80
[23] = dose: 400.0 mg/kg/injection, schedule: Q04DX002 (ip), vehicle: saline with Tween-80

Measured: T/C

Cc1ccc(S(=O)(=O)CC2OCC3OC(C)(C)OC23)cc1 (stereo unspecified)
inactive: dose: 12.5 mg/kg/injection, schedule: Q01DX009 (ip), vehicle: water 100 % of control | [1] 93 % of control | [2] 89 % of control | [3] 100 % of control | [4] 94 % of control

COc1cccc(CCC(=O)O)c1OC
inactive: [1] 103 % of control | [2] 100 % of control | [3] 108 % of control | [4] 91 % of control | dose: 400.0 mg/kg/injection, schedule: Q01DX009 (ip), vehicle: water 92 % of control

CCC/C(=N\O)C(O)(CCC)CCC
inactive: [5] 89 % of control | [6] 89 % of control | [7] 89 % of control

CN(C)C1C(=O)C(C(=O)NCNC(CO)(CO)CO)=C(O)C2(O)C(=O)C3=C(O)c4c(O)cccc4C(C)(O)C3CC12 (stereo unspecified)
inactive: [8] 92 % of control | [9] 101 % of control | dose: 200.0 mg/kg/injection, schedule: Q01DX005 (ip), vehicle: saline 100 % of control

O=C1CC(c2ccccc2)C(=O)N1CN1CC=CCC1 (stereo unspecified)
inactive: [10] 124 % of control

COc1nc(NC2OC(CO)C(O)C(O)C2O)c(C=O)c(=O)n1C (stereo unspecified)
inactive: dose: 60.0 mg/kg/injection, schedule: Q01DX005 (ip), vehicle: saline 93 % of control | dose: 120.0 mg/kg/injection, schedule: Q01DX005 (ip), vehicle: saline 100 % of control | dose: 240.0 mg/kg/injection, schedule: Q01DX005 (ip), vehicle: saline 99 % of control

COc1ccc2c(c1)C(=O)OC2
inactive: [5] 102 % of control | [6] 101 % of control | [7] 99 % of control

C/C(=C\C(=O)Nc1ncn[nH]1)Nc1ncn[nH]1
inactive: [11] 107 % of control | [12] 100 % of control | [13] 100 % of control | dose: 400.0 mg/kg/injection, schedule: Q01DX009 (ip), vehicle: Klucel (hydroxypropylcellulose) (HPC) 99 % of control

O=C(O)c1ccccc1Nc1ccccc1[N+](=O)[O-]
inactive: dose: 50.0 mg/kg/injection, schedule: Q04DX003 (ip), vehicle: saline 94 % of control | dose: 100.0 mg/kg/injection, schedule: Q04DX003 (ip), vehicle: saline 99 % of control | dose: 200.0 mg/kg/injection, schedule: Q04DX003 (ip), vehicle: saline 102 % of control | dose: 400.0 mg/kg/injection, schedule: Q04DX003 (ip), vehicle: saline 105 % of control

O=C(Nc1ccc(Cl)cc1)Oc1ccc(Cl)cc1C(=O)c1ccccc1
inactive: [14] 111 % of control | [15] 110 % of control | [16] 112 % of control

CC(C)(/C=N/O)N1CC=CCC1
inactive: dose: 12.5 mg/kg/injection, schedule: Q04DX002 (ip), vehicle: saline with Tween-80 101 % of control | dose: 25.0 mg/kg/injection, schedule: Q04DX002 (ip), vehicle: saline with Tween-80 100 % of control | dose: 50.0 mg/kg/injection, schedule: Q04DX002 (ip), vehicle: saline with Tween-80 97 % of control

N=C(N)c1ccc(N=Nc2ccc(N)cc2N)cc1
inactive: [17] 120 % of control | [18] 124 % of control

CC1=CC(=C2C(=O)c3ccccc3C2=O)C=C(C)N1CCN1CCCCC1
inactive: [8] 98 % of control | [17] 90 % of control | [9] 99 % of control | [18] 95 % of control

CCCCC(CC)CN1CN(CC(CC)CCCC)CC(C)(N)C1 (stereo unspecified)
inactive: [19] 100 % of control | [20] 98 % of control

COc1ccccc1[N+]([O-])=NC#N
inactive: dose: 6.25 mg/kg/injection, schedule: Q04DX003 (ip), vehicle: Klucel (hydroxypropylcellulose) (HPC) 107 % of control | dose: 12.5 mg/kg/injection, schedule: Q04DX003 (ip), vehicle: Klucel (hydroxypropylcellulose) (HPC) 111 % of control | dose: 25.0 mg/kg/injection, schedule: Q04DX003 (ip), vehicle: Klucel (hydroxypropylcellulose) (HPC) 99 % of control

CC1=C(c2ccccc2)CS1(=O)=O
inactive: [21] 101 % of control | [22] 99 % of control | [23] 110 % of control

CCc1nc(N)nc(N)c1-c1ccc([N+](=O)[O-])cc1
inactive: [19] 108 % of control | [20] 108 % of control

CN(C)CC(CN(C)C)C(=O)/C=C/c1ccc2c(c1)OCO2
inactive: dose: 0.78 mg/kg/injection, schedule: Q01DX005 (ip), vehicle: Klucel (hydroxypropylcellulose) (HPC) 112 % of control | dose: 1.56 mg/kg/injection, schedule: Q01DX005 (ip), vehicle: Klucel (hydroxypropylcellulose) (HPC) 104 % of control | dose: 3.12 mg/kg/injection, schedule: Q01DX005 (ip), vehicle: Klucel (hydroxypropylcellulose) (HPC) 104 % of control

C=C1C(=O)OC2C3OC(C)(CCC(O)C3COC(C)=O)CC(OC(=O)/C(=C/C)COC(C)=O)C12 (stereo unspecified)
inactive: dose: 0.75 mg/kg/injection, schedule: Q01DX009 (ip), vehicle: saline 116 % of control and 118 % of control | dose: 0.78 mg/kg/injection, schedule: Q01DX009 (ip), vehicle: Klucel (hydroxypropylcellulose) (HPC) 99 % of control | dose: 1.5 mg/kg/injection, schedule: Q01DX009 (ip), vehicle: saline 100 % of control and 111 % of control | dose: 1.56 mg/kg/injection, schedule: Q01DX009 (ip), vehicle: Klucel (hydroxypropylcellulose) (HPC) 113 % of control | dose: 3.0 mg/kg/injection, schedule: Q01DX009 (ip), vehicle: saline 101 % of control and 106 % of control | dose: 3.12 mg/kg/injection, schedule: Q01DX009 (ip), vehicle: Klucel (hydroxypropylcellulose) (HPC) 105 % of control | dose: 6.25 mg/kg/injection, schedule: Q01DX009 (ip), vehicle: Klucel (hydroxypropylcellulose) (HPC) 97 % of control

CC(C)(C)N=C(NC#N)Nc1cccnc1Cl
inactive: [21] 103 % of control | [22] 94 % of control | [23] 92 % of control

COc1cc2c(cc1O)c[n+](C)c1c3cc(OC)c(OC)cc3ccc21
inactive: dose: 7.8 mg/kg/injection, schedule: Q01DX009 (ip), vehicle: other 107 % of control | dose: 31.3 mg/kg/injection, schedule: Q01DX009 (ip), vehicle: other 122 % of control | dose: 62.5 mg/kg/injection, schedule: Q01DX009 (ip), vehicle: other 120 % of control | dose: 125.0 mg/kg/injection, schedule: Q01DX009 (ip), vehicle: other 120 % of control

O=C(/C(=C(/[O-])C(F)(F)F)[n+]1cccc2ccccc21)C(F)(F)F
inactive: [14] 104 % of control | [15] 91 % of control | [16] 99 % of control

Cc1nc2ncn(-c3ccccc3)c2c(=O)n1Cc1ccccc1
inactive: dose: 50.0 mg/kg/injection, schedule: Q01DX005 (ip), vehicle: Klucel (hydroxypropylcellulose) (HPC) 105 % of control | dose: 100.0 mg/kg/injection, schedule: Q01DX005 (ip), vehicle: Klucel (hydroxypropylcellulose) (HPC) 105 % of control | dose: 200.0 mg/kg/injection, schedule: Q01DX005 (ip), vehicle: Klucel (hydroxypropylcellulose) (HPC) 105 % of control

CCOc1ccc(N=NC2C(=O)N(c3cccc(Cl)c3Cl)C(=S)N(c3ccccc3)C2O)cc1 (stereo unspecified)
inactive: [10] 99 % of control | dose: 200.0 mg/kg/injection, schedule: Q01DX001 (ip), vehicle: Klucel (hydroxypropylcellulose) (HPC) 100 % of control | dose: 400.0 mg/kg/injection, schedule: Q01DX001 (ip), vehicle: Klucel (hydroxypropylcellulose) (HPC) 97 % of control

CS(=O)(=O)c1cccc(C(=O)O)c1
inactive: [11] 108 % of control | [12] 108 % of control | [13] 99 % of control

C=CCn1c2c(c3ccccc3c1=O)C(=O)c1ccccc1-2
inactive: dose: 6.25 mg/kg/injection, schedule: Q01DX005 (ip), vehicle: saline with Tween-80 97 % of control | dose: 12.5 mg/kg/injection, schedule: Q01DX005 (ip), vehicle: saline with Tween-80 99 % of control | dose: 25.0 mg/kg/injection, schedule: Q01DX005 (ip), vehicle: saline with Tween-80 99 % of control | [20] 87 % of control
